{
  "source": "paper PMC9021288",
  "about": "(Nature Communications, 2022)",
  "key": {"AcAS (PF3D7_0627800)": {"tested_on": "AcAS (PF3D7_0627800)", "experiment": "Cellular thermal shift assay on parasite lysate", "assay_type": "binding, Plasmodium falciparum", "conditions": "1 µM; for AcAS band intensity normalized to DMSO at 37 °C: listed as iPanAm", "experimental": "A cellular thermal shift assay (CETSA) was performed on infected RBCs or parasite lysates as described previously.\nFor a CETSA on parasite lysates, synchronized trophozoite cultures (ACS11-tagged parasites) were treated with 0.1% saponin to lyse the RBCs, and washed three times in PBS. Subsequently, parasite pellets were resuspended in 1× lysis buffer and subjected to three flash-freeze-thaw cycles using liquid nitrogen, followed by mechanical shearing using a syringe with a 25 G and a 30 G needle. Samples were spun down at 18,000 g for 20 min at 4 °C. The supernatant was diluted to 2.1 mg/ml protein concentration, and 100 µl was added to each PCR tube containing 1 µl of the compound at a 100× concentration (final concentration of 1 µM). Samples were incubated for 30 min at room temperature, subjected to a thermal gradient for 3 min on a pre-heated PCR machine, followed by 4 °C for 3 min. Samples were spun down at 18,000 g for 20 min at 4 °C and the soluble fraction was flash-frozen in liquid nitrogen and stored at −80 °C.\nSamples were loaded on an 8% SDS-Page gel (Genscript) with 4×10^6 infected RBCs or 50 µg protein for the parasite lysate approach. Proteins were transferred to a nitrocellulose membrane that was blocked with 5% skim milk (Sigma) in PBS overnight and incubated with rabbit antiserum against AcAS (1:1000) for 1 h. Subsequently, membranes were washed three times with PBS-Tween for 5 min, followed by incubation with secondary horseradish peroxide (HRP)-conjugated goat anti-rabbit antibodies (Dako P0448, 1:1000) for 1 h. Blots were then washed three times with PBS-Tween for 5 min and twice with PBS. Following a 5-min incubation with Clarity Max Western ECL Substrate (BioRad), protein blots were imaged using the ImageQuant LAS4000 (GE Healthcare). The band intensity was quantified using Fiji software."}, "dog primary hepatocytes": {"tested_on": "dog primary hepatocytes", "experiment": "Hepatocyte stability, dog", "assay_type": "in vitro ADME"}, "[1]": {"experiment": "UV scan for phototoxicity", "assay_type": "physicochemical"}, "[2]": {"tested_on": "P. falciparum (NF54-HGL) stage V gametocytes fed to A. stephensi", "experiment": "Transmission-blocking mosquito feeding assay (oocyst luminescence)", "assay_type": "cell-based, Plasmodium falciparum", "experimental": "The transmission-blocking activity of compounds was determined as described previously. Briefly, NF54-HGL parasites were set up at 1% parasitemia in a semi-automated shaker system at 5% hematocrit. […] Eight days after the feed, luminescence was quantified to determine oocyst intensity."}, "[3]": {"molecular_target": "T1, panel of human receptors and channels (Homo sapiens, UniProt P21917)", "T1 construct": "purchased Eurofins CEREP", "T1 sequence (P21917 whole entry)": "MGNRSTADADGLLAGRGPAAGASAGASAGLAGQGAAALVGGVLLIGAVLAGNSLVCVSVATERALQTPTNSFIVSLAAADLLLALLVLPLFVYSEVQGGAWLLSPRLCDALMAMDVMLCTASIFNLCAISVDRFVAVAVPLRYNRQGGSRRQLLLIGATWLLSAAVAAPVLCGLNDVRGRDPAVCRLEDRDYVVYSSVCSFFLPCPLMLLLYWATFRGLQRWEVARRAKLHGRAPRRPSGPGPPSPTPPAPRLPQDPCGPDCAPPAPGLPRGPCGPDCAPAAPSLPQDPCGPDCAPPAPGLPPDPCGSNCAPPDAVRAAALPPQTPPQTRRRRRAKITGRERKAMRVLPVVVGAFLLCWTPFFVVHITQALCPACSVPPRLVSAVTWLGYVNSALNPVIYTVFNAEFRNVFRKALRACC", "assay_type": "binding", "conditions": "D4.4 (h) (antagonist radioligand); Rep1, Rep2, Mean"}, "[4]": {"molecular_target": "T2, panel of human receptors and channels (Homo sapiens, UniProt P43681)", "T2 construct": "purchased Eurofins CEREP", "assay_type": "binding", "conditions": "N neuronal α4β2 (h) (agonist radioligand); Rep1, Rep2, Mean"}, "[5]": {"molecular_target": "T3, panel of human receptors and channels (Homo sapiens, UniProt P50052)", "T3 construct": "purchased Eurofins CEREP", "assay_type": "binding", "conditions": "AT2 (h) (agonist radioligand); Rep1, Rep2, Mean"}, "[6]": {"molecular_target": "T4, panel of human receptors and channels (Homo sapiens, UniProt P32239)", "T4 construct": "purchased Eurofins CEREP", "T4 sequence (P32239 whole entry)": "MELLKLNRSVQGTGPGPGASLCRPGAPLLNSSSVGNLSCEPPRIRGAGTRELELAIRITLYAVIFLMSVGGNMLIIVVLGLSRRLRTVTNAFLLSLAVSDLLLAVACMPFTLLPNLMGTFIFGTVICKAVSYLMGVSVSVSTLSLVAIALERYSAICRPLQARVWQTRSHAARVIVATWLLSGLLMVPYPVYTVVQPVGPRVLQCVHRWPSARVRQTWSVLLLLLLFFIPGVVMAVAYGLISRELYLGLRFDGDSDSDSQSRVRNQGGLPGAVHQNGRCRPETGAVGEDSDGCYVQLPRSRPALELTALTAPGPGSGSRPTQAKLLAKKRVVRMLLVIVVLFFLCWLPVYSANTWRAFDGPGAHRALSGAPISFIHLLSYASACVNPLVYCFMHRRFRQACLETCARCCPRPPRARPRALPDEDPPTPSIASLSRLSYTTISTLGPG", "assay_type": "binding", "conditions": "CCK2 (CCKB) (h) (agonist radioligand); Rep1, Rep2, Mean"}, "[7]": {"molecular_target": "T5, panel of human receptors and channels (Homo sapiens, UniProt P43116)", "T5 construct": "purchased Eurofins CEREP", "T5 sequence (P43116 whole entry)": "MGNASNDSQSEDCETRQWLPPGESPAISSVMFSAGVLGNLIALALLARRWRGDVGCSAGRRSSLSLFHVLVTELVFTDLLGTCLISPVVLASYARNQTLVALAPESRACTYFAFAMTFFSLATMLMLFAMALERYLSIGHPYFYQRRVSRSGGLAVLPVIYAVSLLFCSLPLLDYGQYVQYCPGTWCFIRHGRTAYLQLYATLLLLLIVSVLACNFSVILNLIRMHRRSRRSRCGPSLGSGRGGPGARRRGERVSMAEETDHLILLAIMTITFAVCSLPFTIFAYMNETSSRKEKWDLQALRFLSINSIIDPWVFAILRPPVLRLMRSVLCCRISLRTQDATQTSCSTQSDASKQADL", "assay_type": "binding", "conditions": "EP2 (h) (agonist radioligand); Rep1, Rep2, Mean"}, "[8]": {"molecular_target": "T6, panel of human receptors and channels (Homo sapiens, UniProt P21728)", "T6 construct": "purchased Eurofins CEREP", "T6 sequence (P21728 whole entry)": "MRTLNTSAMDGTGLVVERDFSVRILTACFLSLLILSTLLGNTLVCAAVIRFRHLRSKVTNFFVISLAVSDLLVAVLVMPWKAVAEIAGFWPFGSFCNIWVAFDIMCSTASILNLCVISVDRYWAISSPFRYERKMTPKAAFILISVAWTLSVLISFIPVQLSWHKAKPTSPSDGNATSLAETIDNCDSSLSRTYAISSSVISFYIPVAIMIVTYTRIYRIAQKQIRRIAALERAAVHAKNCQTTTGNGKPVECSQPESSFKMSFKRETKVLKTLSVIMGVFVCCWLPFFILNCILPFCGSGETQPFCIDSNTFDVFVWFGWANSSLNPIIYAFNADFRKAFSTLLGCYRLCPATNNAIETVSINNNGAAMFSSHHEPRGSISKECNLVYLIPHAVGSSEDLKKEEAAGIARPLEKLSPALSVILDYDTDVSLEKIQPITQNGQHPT", "assay_type": "binding", "conditions": "D1 (h) (antagonist radioligand); Rep1, Rep2, Mean"}, "[9]": {"molecular_target": "T7, panel of human receptors and channels (Homo sapiens, UniProt P21554)", "T7 construct": "purchased Eurofins CEREP", "assay_type": "binding", "conditions": "CB1 (h) (agonist radioligand); Rep1, Rep2, Mean"}, "[10]": {"molecular_target": "T8, panel of human receptors and channels (Homo sapiens, UniProt P32238)", "T8 construct": "purchased Eurofins CEREP", "T8 sequence (P32238 whole entry)": "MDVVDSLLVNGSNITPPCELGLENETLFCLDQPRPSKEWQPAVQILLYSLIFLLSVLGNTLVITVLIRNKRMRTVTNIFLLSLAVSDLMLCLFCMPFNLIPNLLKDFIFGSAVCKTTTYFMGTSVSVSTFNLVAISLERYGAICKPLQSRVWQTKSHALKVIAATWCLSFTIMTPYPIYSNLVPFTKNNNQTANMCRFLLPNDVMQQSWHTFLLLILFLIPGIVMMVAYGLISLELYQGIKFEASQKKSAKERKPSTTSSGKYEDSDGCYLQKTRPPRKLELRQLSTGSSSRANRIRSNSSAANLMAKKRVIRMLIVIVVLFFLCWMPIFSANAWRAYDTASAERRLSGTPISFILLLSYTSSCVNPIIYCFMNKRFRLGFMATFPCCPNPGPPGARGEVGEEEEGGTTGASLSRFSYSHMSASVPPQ", "assay_type": "binding", "conditions": "CCK1 (CCKA) (h) (agonist radioligand); Rep1, Rep2, Mean"}, "[11]": {"molecular_target": "T9, panel of human receptors and channels (Homo sapiens, UniProt P30518)", "T9 construct": "purchased Eurofins CEREP", "T9 sequence (P30518 whole entry)": "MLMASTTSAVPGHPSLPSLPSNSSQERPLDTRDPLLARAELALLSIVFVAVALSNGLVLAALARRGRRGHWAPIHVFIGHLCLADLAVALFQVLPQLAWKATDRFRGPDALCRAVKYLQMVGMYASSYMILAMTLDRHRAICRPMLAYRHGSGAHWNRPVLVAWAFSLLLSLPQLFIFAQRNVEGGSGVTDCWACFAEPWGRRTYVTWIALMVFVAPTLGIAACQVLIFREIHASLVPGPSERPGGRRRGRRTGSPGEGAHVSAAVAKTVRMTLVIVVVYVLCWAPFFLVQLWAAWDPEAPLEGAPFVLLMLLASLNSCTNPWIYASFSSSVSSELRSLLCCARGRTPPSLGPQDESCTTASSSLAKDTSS", "assay_type": "binding", "conditions": "V2 (h) (agonist radioligand); Rep1, Rep2, Mean"}, "[12]": {"molecular_target": "T10, panel of human receptors and channels (Homo sapiens, UniProt P29371)", "T10 construct": "purchased Eurofins CEREP", "T10 sequence (P29371 whole entry)": "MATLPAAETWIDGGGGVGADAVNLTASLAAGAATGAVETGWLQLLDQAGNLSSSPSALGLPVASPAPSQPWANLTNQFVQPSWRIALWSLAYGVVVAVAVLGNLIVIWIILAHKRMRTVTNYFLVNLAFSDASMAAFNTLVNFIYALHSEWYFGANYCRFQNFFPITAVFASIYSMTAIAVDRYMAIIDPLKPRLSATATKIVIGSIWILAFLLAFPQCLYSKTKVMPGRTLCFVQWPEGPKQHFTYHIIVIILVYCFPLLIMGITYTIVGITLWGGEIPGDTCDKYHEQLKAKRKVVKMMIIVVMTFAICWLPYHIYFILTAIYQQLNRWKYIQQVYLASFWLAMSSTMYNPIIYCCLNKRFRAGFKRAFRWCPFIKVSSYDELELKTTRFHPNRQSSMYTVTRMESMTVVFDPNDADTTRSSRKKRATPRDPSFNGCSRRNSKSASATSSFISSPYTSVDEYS", "assay_type": "binding", "conditions": "NK3 (h) (antagonist radioligand); Rep1, Rep2, Mean"}, "[13]": {"molecular_target": "T11, panel of human receptors and channels (Homo sapiens, UniProt P31645)", "T11 construct": "purchased Eurofins CEREP", "T11 sequence (P31645 whole entry)": "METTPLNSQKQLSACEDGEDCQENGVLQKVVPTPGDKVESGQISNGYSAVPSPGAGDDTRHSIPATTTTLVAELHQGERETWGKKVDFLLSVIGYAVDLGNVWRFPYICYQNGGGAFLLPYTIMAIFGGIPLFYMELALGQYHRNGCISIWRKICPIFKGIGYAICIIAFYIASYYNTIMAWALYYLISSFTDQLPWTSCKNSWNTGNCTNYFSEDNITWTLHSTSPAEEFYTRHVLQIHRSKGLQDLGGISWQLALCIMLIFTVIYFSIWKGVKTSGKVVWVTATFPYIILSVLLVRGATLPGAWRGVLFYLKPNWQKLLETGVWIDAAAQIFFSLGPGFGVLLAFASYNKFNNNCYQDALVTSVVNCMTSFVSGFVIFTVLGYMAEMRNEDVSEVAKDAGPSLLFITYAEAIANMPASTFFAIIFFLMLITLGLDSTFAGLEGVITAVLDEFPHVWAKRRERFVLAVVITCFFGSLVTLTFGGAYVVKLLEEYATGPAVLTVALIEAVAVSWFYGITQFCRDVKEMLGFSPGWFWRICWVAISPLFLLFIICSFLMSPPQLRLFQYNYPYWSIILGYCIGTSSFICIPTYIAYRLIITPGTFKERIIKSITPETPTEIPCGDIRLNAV", "assay_type": "binding", "conditions": "5-HT transporter (h) (antagonist radioligand); Rep1, Rep2, Mean"}, "[14]": {"molecular_target": "T12, panel of human receptors and channels (Homo sapiens, UniProt P07550)", "T12 construct": "purchased Eurofins CEREP", "T12 sequence (P07550 whole entry)": "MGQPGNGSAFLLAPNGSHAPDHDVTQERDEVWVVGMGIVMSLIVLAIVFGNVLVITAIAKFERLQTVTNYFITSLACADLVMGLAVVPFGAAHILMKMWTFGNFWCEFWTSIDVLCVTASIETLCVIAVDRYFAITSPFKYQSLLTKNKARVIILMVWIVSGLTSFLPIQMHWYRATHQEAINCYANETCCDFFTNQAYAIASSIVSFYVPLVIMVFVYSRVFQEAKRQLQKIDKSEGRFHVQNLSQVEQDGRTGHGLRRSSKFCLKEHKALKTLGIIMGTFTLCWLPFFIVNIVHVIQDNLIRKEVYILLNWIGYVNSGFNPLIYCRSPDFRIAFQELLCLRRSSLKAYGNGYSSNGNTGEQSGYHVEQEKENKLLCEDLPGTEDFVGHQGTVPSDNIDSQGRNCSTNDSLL", "assay_type": "binding", "conditions": "β2 (h) (antagonist radioligand); Rep1, Rep2, Mean"}, "[15]": {"molecular_target": "T13, panel of human receptors and channels (Homo sapiens, UniProt P34998)", "T13 construct": "purchased Eurofins CEREP", "T13 sequence (P34998 24-415)": "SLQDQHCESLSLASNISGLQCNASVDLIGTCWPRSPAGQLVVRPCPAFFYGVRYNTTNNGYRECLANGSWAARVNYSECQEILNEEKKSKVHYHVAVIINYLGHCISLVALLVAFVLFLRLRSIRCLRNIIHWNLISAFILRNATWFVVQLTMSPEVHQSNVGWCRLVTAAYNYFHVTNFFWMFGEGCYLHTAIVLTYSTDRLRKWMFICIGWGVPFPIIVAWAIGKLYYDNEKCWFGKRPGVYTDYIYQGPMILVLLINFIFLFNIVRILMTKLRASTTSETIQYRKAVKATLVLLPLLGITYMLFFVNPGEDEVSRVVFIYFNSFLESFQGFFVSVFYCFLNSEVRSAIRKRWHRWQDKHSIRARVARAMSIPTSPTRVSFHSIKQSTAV", "assay_type": "binding", "conditions": "CRF1 (h) (agonist radioligand); Rep1, Rep2, Mean"}, "[16]": {"molecular_target": "T14, panel of human receptors and channels (Homo sapiens, UniProt P04150)", "T14 construct": "purchased Eurofins CEREP", "assay_type": "binding", "conditions": "GR (h) (agonist radioligand); Rep1, Rep2, Mean"}, "[17]": {"molecular_target": "T15, panel of human receptors and channels (Homo sapiens, UniProt Q9Y5N1)", "T15 construct": "purchased Eurofins CEREP", "T15 sequence (Q9Y5N1 whole entry)": "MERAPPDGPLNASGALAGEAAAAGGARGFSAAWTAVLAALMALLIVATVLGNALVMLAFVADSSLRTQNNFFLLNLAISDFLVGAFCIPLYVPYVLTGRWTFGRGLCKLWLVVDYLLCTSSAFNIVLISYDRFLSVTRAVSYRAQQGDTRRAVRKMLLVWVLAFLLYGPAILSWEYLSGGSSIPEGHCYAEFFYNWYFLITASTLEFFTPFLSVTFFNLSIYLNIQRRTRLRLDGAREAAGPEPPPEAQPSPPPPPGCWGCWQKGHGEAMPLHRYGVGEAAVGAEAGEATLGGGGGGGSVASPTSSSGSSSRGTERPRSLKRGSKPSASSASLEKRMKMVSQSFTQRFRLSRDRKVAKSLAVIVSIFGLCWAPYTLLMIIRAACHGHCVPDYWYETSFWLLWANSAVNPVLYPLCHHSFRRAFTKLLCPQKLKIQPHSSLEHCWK", "assay_type": "binding", "conditions": "H3 (h) (agonist radioligand); Rep1, Rep2, Mean"}},
  "note": "“And” between values parts separate entries of the source, which are not always exact repeats. Equal entries are not always repeated. “Also recorded” adds a separate entry of the source.",
  "data": [
    {"smiles": "C[C@@H](CNC(=O)[C@H](O)C(C)(C)CO)NC(=O)c1cc(F)c(F)cc1F", "note": "[MMV693183]", "values": [
      {"measurement": "AcAS band intensity normalized to DMSO at 37 °C", "setting": "AcAS (PF3D7_0627800); 37 °C", "value": 134.836},
      {"measurement": "AcAS band intensity normalized to DMSO at 37 °C", "setting": "AcAS (PF3D7_0627800); 42 °C", "value": 174.374},
      {"measurement": "AcAS band intensity normalized to DMSO at 37 °C", "setting": "AcAS (PF3D7_0627800); 47 °C", "value": 76.9786},
      {"measurement": "AcAS band intensity normalized to DMSO at 37 °C", "setting": "AcAS (PF3D7_0627800); 52 °C", "value": 24.7861},
      {"measurement": "AcAS thermal stability", "setting": "AcAS (PF3D7_0627800); 30 min, parasite lysate", "value": "neither the parent compound MMV693183 nor its derivative 4’P-MMV693183 affected AcAS stability"},
      {"measurement": "Compound Remaining (% of 0 min)", "setting": "dog primary hepatocytes; 0 min", "value": 100, "unit": "%"},
      {"measurement": "Compound Remaining (% of 0 min)", "setting": "dog primary hepatocytes; 5 min", "value": 92.3, "unit": "%"},
      {"measurement": "Compound Remaining (% of 0 min)", "setting": "dog primary hepatocytes; 10 min", "value": 91.7, "unit": "%"},
      {"measurement": "Compound Remaining (% of 0 min)", "setting": "dog primary hepatocytes; 20 min", "value": 92.7, "unit": "%"},
      {"measurement": "Compound Remaining (% of 0 min)", "setting": "dog primary hepatocytes; 40 min", "value": 85.2, "unit": "%"},
      {"measurement": "Compound Remaining (% of 0 min)", "setting": "dog primary hepatocytes; 60 min", "value": 83.9, "unit": "%"},
      {"measurement": "UV absorbance", "setting": "[1]", "value": "No absorbance >290 nm; also recorded: no detectable absorption above 290 nm"},
      {"measurement": "midgut infection", "setting": "[2]; 1 µM directly at the time of the mosquito feed", "value": "did not inhibit midgut infection"},
      {"measurement": "IC50", "setting": "[2]; gametocytes treated 24 h before feeding to A. stephensi, read-out: IC50 oocyst formation", "value": 38, "unit": "nM"},
      {"measurement": "% Inhibition of Control Specific Binding", "setting": "[3]", "value": "-1.9% and 2.9% and 0.5%"},
      {"measurement": "% Inhibition of Control Specific Binding", "setting": "[4]", "value": "-14.6% and -4.9% and -9.75%"},
      {"measurement": "% Inhibition of Control Specific Binding", "setting": "[5]", "value": 7.4, "unit": "%"},
      {"measurement": "% Inhibition of Control Specific Binding", "setting": "[6]", "value": "10.5% and 16.3% and 13.4%"},
      {"measurement": "% Inhibition of Control Specific Binding", "setting": "[7]", "value": "-1.6% and 2.2% and 0.3%"},
      {"measurement": "% Inhibition of Control Specific Binding", "setting": "[8]", "value": "-2.9% and 0.3% and -1.3%"},
      {"measurement": "% Inhibition of Control Specific Binding", "setting": "[9]", "value": -14.2, "unit": "%"},
      {"measurement": "% Inhibition of Control Specific Binding", "setting": "[10]", "value": "-13.7% and -11% and -12.35%"},
      {"measurement": "% Inhibition of Control Specific Binding", "setting": "[11]", "value": "3.4% and 12.9% and 8.15%"},
      {"measurement": "% Inhibition of Control Specific Binding", "setting": "[12]", "value": "-0.9% and 5.3% and 2.2%"},
      {"measurement": "% Inhibition of Control Specific Binding", "setting": "[13]", "value": "-13.7% and -4.2% and -8.95%"},
      {"measurement": "% Inhibition of Control Specific Binding", "setting": "[14]", "value": "3.7% and -4.8% and -0.55%"},
      {"measurement": "% Inhibition of Control Specific Binding", "setting": "[15]", "value": "16.8% and 10.5% and 13.65%"},
      {"measurement": "% Inhibition of Control Specific Binding", "setting": "[16]", "value": -7.3, "unit": "%"},
      {"measurement": "% Inhibition of Control Specific Binding", "setting": "[17]", "value": "-9.8% and -18.8% and -14.3%"}
    ]}
  ]
}
